Source: patent US11421145B2, “Oil recovery methods using a formulation containing an unsaturated zwitterionic surfactant and a polymer” (King Fahd University of Petroleum and Minerals, priority 2019, dated 2022)

Experiment: Solubility and compatibility in seawater (SW) and formation water (FW)
Assay type: physicochemical
Settings: seawater and formation water
Experimental: Synthetic seawater (SW) and formation water (FW) were prepared using NaCl, Na2SO4, NaHCO3, CaCl2, and MgCl2. All the salts were obtained from Sigma-Aldrich, USA.
Solubility and compatibility of the surfactant in the reservoir and injection brine are the primary considerations for further evaluation of the unsaturated surfactant for EOR application. If the surfactant is not soluble in the seawater and formation brine, it can be rejected at the initial stage. […] After the compatibility test with SW and FW, the short-term thermal stability of the synthesized unsaturated surfactant was evaluated using TGA analysis. […] Only 3% weight loss was observed up to 200° C., which was mainly associated with solvent and water evaporation. […] TGA results helped to identify and eliminate the surfactants that had lower decomposition temperatures. However, for real field applications, long-term thermal stability of the surfactant must be considered, as the surfactant residence time in the reservoir could vary from a few days to a few months.

- solubility in SW and FW: poor solubility
Compound: CCCCCCCCCCCCCCCCCC(=O)NCCC[N+](C)(C)CCCS(=O)(=O)[O-] [3-(N-stearamidopropyl-N,N-dimethylammonium)propanesulfonate, reference compound]
